Among the data in ChEMBL document CHEMBL1128819, “Chiral spirocyclic benzopyran potassium channel openers: Evidence for the active conformation of levcromakalim” (Bioorg Med Chem Lett, 1995) are EC50 and ED30 values, retold here.

Assay [1] is described as follows: In vitro potassium channel opening activity in A10 (smooth muscle) cells; Inactive. It is filed as functional, cell-based, Rattus norvegicus.
Assay [2] is described as follows: In vitro potassium channel opening activity in A10 (smooth muscle) cells. It is filed as functional, cell-based, Rattus norvegicus.
A further assay deals with Rattus norvegicus. In words: Effective dose required for lowering of blood pressure, when administered intravenously to CUP-anesthetized rats. It is filed as functional. The note with it: iv.

Take `CCCNC1=NC(=O)[C@]2(CC(C)(C)Oc3ccc(Br)cc32)N1`: the EC50 result in assay [1] is recorded as “Not Active”. Molecule `CCCNC1=NC(=O)[C@@]2(CC(C)(C)Oc3ccc(Br)cc32)N1` gave an EC50 in assay [2] of 4 nM. Moreover, in the assay on Rattus norvegicus, the ED30 was determined as 2.5 µg/kg.

For orientation: EC50 means the concentration needed to bring the measured effect to its halfway point.
